Data as given in patent US6994992B1, “Androgen-induced suppressor of cell proliferation and uses thereof” (Trustees of Tufts College, priority 1999, dated 2006).

Legend:
STFX1 cells = assay: BrdU incorporation, percent BrdU-labeled nuclei of STFX1 cells containing vector only or AS3 antisense constructs; format: cell-based; conditions: for percent BrdU-labeled nuclei: 10 nM R1881 for 24 h, BrdU labeling
Text: In particular, the AS3 antisense gene was cloned into the Clontech pRevTRE™ retroviral vector under the control of a tetracycline sensitive promoter. The promoter has seven repeats of the bacterial tetO operator sequence upstream of the minimal CMV promoter which can be bound by the tetracycline transactivator (tTA). The tTA is a fusion protein between the bacterial tetracycline repressor and the […] herpes virus transactivator. The tetracycline transactivator is sensitive for tetracycline such that, in the presence of tetracycline, the transactivator cannot bind the tetracycline promoter so the transgene is “off” and conversely, in the absence of tetracycline, the gene is “on” (i.e., the Tet-Off™ system; see, e.g., Clontech pRevTRE™ manual for further details).
The supernatants containing the highest amounts of virions were then used to infect the STFX1 cell line, a derivative of the MCF7-AR1 that has a tetracycline transactivator gene stably integrated. During the cloning and selection procedures, cells were maintained in 1 μg/mL of tetracycline to suppress the expression of the inducible transgenes.
In order to characterize the cell lines expressing AS3 antisense and the “control” cell lines having vector without insert, cells were incubated in the presence (i.e., the transgene is off) and absence of tetracycline (i.e., the transgene is on) and, after 36 hours, assayed for transcript expression using RT-PCR under standard conditions,
To determine the affect of androgen induced AS3 suppression of cellular growth, cells lines showing high levels of inducible AS3 antisense expression were chosen for further study. Cells were seeded onto coverslips in standard growth medium and allowed to grow for 5 days in the presence of 10 μg/ml tetracycline (hereafter “tet”). Then, vehicle or 10 nM of the androgen R1881 was added. Finally, 24 hours later, the cells were treated with 10 μg/ml of bromodeoxyuridine (BrdU) for several hours to measure the percent of cells actively proliferating as a function of BrdU incorporation during DNA replication. The cells were then fixed, Hoechst stained, and the percent number of BrdU-labeled cells was determined using immunocytochemistry (using standard BrdU labeling regents and protocols from Boheringer).

LNCaP-FGC cells = assay: Proliferation of LNCaP-FGC cells in CDHuS with androgen; format: cell-based, human
Text: Androgens regulate prostate cell numbers and cell proliferation by three major mechanisms: a) inhibition of cell death (apoptosis), b) induction of cell proliferation (Step-1), and c) inhibition of cell proliferation (proliferative shutoff, Step-2) (Isaacs (1985) Prostate 5:545–557; Bruchovsky et al. (1975) Vit. &Horm. 33:61–102; Sonnenschein et al., (1989) Cancer Res. 49:3474–3481). Androgens affect epithelial and stromal cell types which, in turn, interact in the prostate (Hayward et al., (1997) Brit. J. Urol. Suppl. 2: 18–26). […] Proliferation is inhibited in these cells by sex steroid-stripped (charcoal-dextran treated) human serum (CDHuS) (Sonnenschein et al., (1989) Cancer Res. 49:3474–3481). Low androgen concentrations cancel this inhibition (Step-1) and at higher levels, androgens induce an irreversible proliferative shutoff (Step-2) (Sonnenschein et al., (1989) Cancer Res. 49:3474–3481; Soto et al., (1995) Oncology Res. 7: 545–558). During the shutoff period, these cells remain in the G0/G1 phase of the cell cycle. Prostate specific antigen (PSA) induction, however, is still dependent on androgens in these postmitotic cells (Soto et al., (1995) Oncology Res. 7: 545–558). […]

AS3 = assay: Expression analysis of the AS3 transcript in LNCaP-FGC cells; format: cell-based, human
Procedure: Briefly, androgen-specific, low-abundance regulatory mRNA sequences expressed during the proliferative shutoff, were selected using the Wang-Brown approach (Wang et al., (1991) Proc. Natl. Acad. Sci. USA 88: 11505–11509). […] LNCaP-FGC cells were treated with 30 nM R1881 to generate proliferative shutoff. R1881 (methyltrienolone) is a synthetic, non-metabolized androgen (Roussell-UCLAF, Romainville, France). Exposure to androgen for 24 hours was required to commit LNCaP-FGC cells to an irreversible proliferative shutoff (Geck et al., (1997) J. Steroid Biochem. Mol. Biol. 63: 211–218). […] LNCaP-FGC cells reversibly arrested by CDHuS were considered as the shutoff-negative control; they were harvested after three days of CDHuS treatment. Total RNA was prepared by the acidic guanidinium-thiocyanate method and polyA RNA was purified by using the FastTrack™ kit (Invitrogen, San Diego, Calif.) (Chomczinsky et al., (1987) Anal. Biochem. 162: 156–159).
Furthermore, expression of the AS3 transcript positively correlated with proliferation arrest as this gene was expressed only in shutoff-positive cell lines and variants. […] An additional observation that indicates the AS3 gene codes for an inhibitor of the proliferation of prostate cells is the increase of AS3 mRNA levels in the rat prostate when proliferation was arrested by prolonged androgen administration. […]

[1] = CDHuS supplemented with 30 pM R1881

For `C[C@]1(O)CC[C@H]2[C@@H]3CCC4=CC(=O)CCC4=C3C=C[C@@]21C` [R1881, methyltrienolone], the proliferative shutoff (STFX1 cells; AS3 levels reduced by antisense expression in the absence of tetracycline (sample 8 vs sample 6), 10 nM R1881) was “no longer induces a proliferative shutoff”, the “percent BrdU-labeled nuclei” value (STFX1 cells; STFX1 cells with AS3 antisense construct, +tet (antisense uninduced)) was 9.7 +/−0.6% and the “percent BrdU-labeled nuclei” value (STFX1 cells; STFX1 cells with AS3 antisense construct, −tet (antisense expressed)) was 29.1 +/−1.6%. For the same compound, the “percent BrdU-labeled nuclei” value (STFX1 cells; STFX1 cells with empty vector, +tet (10 μg/ml)) was 9.4 +/−1.7%, the “percent BrdU-labeled nuclei” value (STFX1 cells; STFX1 cells with empty vector, −tet (vector induced)) was 10.7 +/−0.9% and the “number of proliferating cells in S phase” value (STFX1 cells; cellular levels of AS3 unaffected (samples 2, 4, 6) compared to sample 1 without androgen, 10 nM R1881) was “significant decrease”. The “proliferation of LNCaP-FGC cells” value (LNCaP-FGC cells; 0.3–30 nM of R1881) was “inhibited from proliferating”, the “proliferation of LNCaP-FGC cells” value (LNCaP-FGC cells; [1]) was “proliferated maximally” and the AS3 expression (AS3; 0.3–30 nM of R1881) was “strongly induced”. For the same compound, the AS3 expression (AS3; [1]) was “not expressed”.
